# From patent publication US11266626B2, “Reduction of ER-MAM-localized APP-C99 and methods of treating alzheimer's disease” (THE TRUSTEES OF COLUMBIA UNIVERSITY IN THE CITY OF NEW YORK, priority 2015, dated 2022)
# Entries after “also recorded” stand apart in the source; their conditions may differ.
# Tests used:
# [1] = tested on: mitochondrial respiratory supercomplexes; experiment: Supercomplex analysis (blue-native gels, in-gel activity and western blot); format: cell-based, mouse
# Method: Analysis and quantification of mitochondrial respiratory complexes by western blot and enzymatic in-gel activity were carried out as previously reported (Acin-Perez et al., 2008)
# Analysis and quantification of mitochondrial respiratory complexes by Western blot and enzymatic in-gel activity were carried out as described (Acin-Perez et al, 2008).
# [2] = tested on: acid (aSMase) and neutral (nSMase) sphingomyelinases; experiment: Analysis of sphingomyelinase activity; format: cell-based, human; conditions: SH-SY5Y cells; DAPT 10 μM
# Method: One hundred μg of protein were assayed in 100 mM of the appropriate buffer (Tris/glycine for pH 7.0-9.0 and sodium acetate for pH 4.0-5.0), 1.55 mM Triton X-100, 0.025% BSA, 1 mM MgCl2, and 400 μM bovine brain sphingomyelin spiked with 22000 dpm of [3H]-bovine sphingomyelin ([…]). Reactions were carried out in borosilicate glass culture tubes at 37° C., overnight, followed by quenching with 1.2 ml of ice-cold 10% trichloroacetic acid, incubation at 4° C. for 30 min, and centrifugation at 2000 rpm at 4° C. for 20 min. One ml of supernatant was transferred to clean tubes, 1 ml of ether was added, the mixture vortexed, and centrifuged at 2000 rpm for 5 min. Eight hundred μl of the bottom phase was transferred to scintillation vials, 5 ml of Scintiverse BD (Fisher Scientific, Fair Lawn, N.J.) was added, and samples were counted. […]
# Reactions were carried out in borosilicate glass culture tubes at 37° C., overnight, followed by quenching with 1.2 ml of ice-cold 10% trichloroacetic acid, incubation at 4° C. for 30 min, and centrifugation at 2000 rpm at 4° C. for 20 min. […] Eight hundred μl of the bottom phase was transferred to scintillation vials, 5 ml of Scintiverse BD (Fisher Scientific, Fair Lawn, N.J.) was added, and samples were counted. […]
# [3] = tested on: WT MEFs and presenilin-mutant (PS-DKO) cells; experiment: Filipin staining of free cholesterol; format: cell-based, mouse; conditions: WT MEFs treated with DAPT, then BACE1 inhibitor
# Method: Cells were washed in PBS and fixed in 3% paraformaldehyde at room temperature for 1 h. After washing in PBS three times, samples were incubated in 1.5 mg/ml glycine in 1×PBS to quench the paraformaldehyde and then incubated in 0.05 mg/ml of filipin in PBS/10% FBS for 2 h at room temperature. Free cholesterol signal was visualized in by microscopy and quantified by ImageJ.
# WT and PS-DKO cells = experiment: Mitochondrial content and biogenesis (VDAC, TOM20 western blot; PGC-1α qRT-PCR); format: cell-based, mouse
# Method: Total RNA was extracted from MEFs using TRIzol® Reagent (Invitrogen 15596-018) according to the manufacture's instructions, and was quantified by NanoDrop2000 (Thermo Scientific). […] of total RNA was used to obtain cDNA by RT-PCR using a High Capacity cDNA Reverse Transcription Kit (Applied Biosystems; PN 4368813, 4374966). Real-Time PCR was performed in triplicate in a StepOnePlus™ Real-Time PCR System (Applied Biosystems; 4376600). The expression of each gene under study was analyzed using specific predesigned TaqMan Probes (PGC-1α, ppargc1 Mm01208835_m1; aSMase, smpd1 Mm00488319_g1; nSMase, smpd3 Mm00491359_m1). The expression of each gene under study was analyzed using specific predesigned TaqMan Probes and normalizing against Gapdh expression (Applied Biosystems, 4352339E) as an internal standard.
# Total RNA was extracted from MEFs using TRIzol® Reagent (Invitrogen 15596-018) according to the manufacture's instructions, and was quantified by NanoDrop2000 (Thermo Scientific). […] The expression of each gene under study was analyzed using specific predesigned TaqMan Probes (PGC-1α, ppargcl Mm01208835_ml; aSMase, smpd1 Mm00488319_g1; nSMase, smpd3 Mm00491359_ml). The forward and reverse primers for COXI quantification were, respectively, ([…] (SEQ ID NO: 5); […] (SEQ ID NO: 6)). […]
SMILES,"activity of supercomplexes I+III+IV, I+III and III+IV ([1]; mitochondria from DAPT-treated WT cells)",SMase activity [2],distribution of free cholesterol (filipin staining punctae) [3],"mitochondrial content / biogenesis (VDAC, TOM20, PGC-1α mRNA) (WT and PS-DKO cells)","activity of supercomplexes I+III+IV, I+III and III+IV (in-gel complex I and IV activity) ([1]; mitochondria from PS-DKO cells incubated with BI or myriocin)","assembly of respiratory supercomplexes (blue-native PAGE western blot) ([1]; mitochondria from PS-DKO cells, anti-complex I and III antibodies)"
C[C@H](NC(=O)Cc1cc(F)cc(F)c1)C(=O)N[C@H](C(=O)OC(C)(C)C)c1ccccc1 [DAPT],decrease in the activity of supercomplexes,significantly increased SMase activities; also recorded: increase in SMase activity,this phenotype was recapitulated,do not affect mitochondrial biogenesis,,
"C[C@@H](NC(=O)c1cc(C(=O)N[C@@H](Cc2ccccc2)[C@H](O)CNC2CC2)cc(N(C)S(C)(=O)=O)c1)c1ccccc1 [BI, β-secretase inhibitor IV]",,,reverse it,without changes in mitochondria; also recorded: do not affect mitochondrial biogenesis,rescued,increases the assembly of supercomplexes I+III and I+III+IV
